Results as given in patent EP1374681A1, “Process for identifying fungicidally active compounds” (Bayer CropScience AG, priority 2002, dated 2004).

Assays:
Phytophtora infectans = test: Test of fungicidal action (fungal growth inhibition vs. untreated control; ED50 and Wirkungsgrad); format: cell-based
Method: Dazu können z.B. in die Kavitäten von Mikrotiterplatten eine Lösung des zu prüfenden Wirkstoffs pipettiert werden. Nachdem das Lösungsmittel abgedampft war, wird zu jeder Kavität Medium hinzugefügt. Das Medium wird vorher mit einer geeigneten Konzentration von Sporen bzw. Mycel des zu prüfenden Pilzes versetzt. Die resultierenden Konzentrationen des Wirkstoffes betragen z.B. 0,1, 1, 10 und 100 ppm.
Die Platten werden anschließend auf einem Schüttler bei einer Temperatur von 22°C inkubiert, bis in der unbehandelten Kontrolle ein ausreichendes Wachstum feststellbar ist.
Die Auswertung erfolgt dann photometrisch bei einer Wellenlänge von 620 nm. Aus den Messdaten der verschiedenen Konzentrationen kann die Wirkstoffdosis bestimmt werden, die zu einer 50 %igen Hemmung des Pilzwachstums gegenüber der unbehandelten Kontrolle führt (ED50).
Ein anderes Verfahren zur Prüfung der fungiziden Wirkung beruht darauf, die protektive Wirkung der zu testenden Verbindung an einer Pflanze zu testen. Dazu wird die Pflanze mit einer Lösung des zu prüfenden Wirkstoffs besprüht und anschließend mit einer Lösung von Pilzssporen inokuliert und über mehrere Tage hinweg beobachtet. Es kann dann im Vergleich zu einer Pflanze, die nicht vorab mit einer Wirkstofflösung behandelt wurde, festgestellt werden, ob der zu prüfende Wirkstoff den Befall bzw. die Ausbreitung des Pilzes verhindert oder mindert.
Auch hier kann die Wirkstoffkonzentration bestimmt werden, die zu einer 50 %igen Hemmung des Pilzwachstums gegenüber der unbehandelten Kontrolle führt (ED50).
Weiterhin kann als Größe zur Beurteilung einer fungiziden Wirkung der Wirkungsgrad herangezogen werden, wobei 0 % für einen Wirkungsgrad steht, der demjenigen der Kontrolle entspricht, während ein Wirkungsgrad von 100 % bedeutet, daß kein Befall beobachtet wird.
In die Kavitäten von Mikrotiterplatten wurde eine methanolische Lösung des anhand eines erfindungsgemäßen Verfahrens identifizierten Wirkstoffs (Tab. I, Bsp. 2), versetzt mit einem Emulgator, pipettiert. […]

Phosphomannomutase = target: T1, Phosphomannomutase (Saccharomyces cerevisiae, UniProt P07283); test: Phosphomannomutase inhibition test, coupled fluorescence assay (NADPH) in 384-well MTP; format: biochemical; conditions: negative decadic logarithm of the molar IC50 (50 % inhibition of the enzyme)
T1 construct: made in house; host or cells: E. coli BL21 (DE3), plasmid pSec53 (pGEX-4T-1)
T1 sequence (P07283 1-254): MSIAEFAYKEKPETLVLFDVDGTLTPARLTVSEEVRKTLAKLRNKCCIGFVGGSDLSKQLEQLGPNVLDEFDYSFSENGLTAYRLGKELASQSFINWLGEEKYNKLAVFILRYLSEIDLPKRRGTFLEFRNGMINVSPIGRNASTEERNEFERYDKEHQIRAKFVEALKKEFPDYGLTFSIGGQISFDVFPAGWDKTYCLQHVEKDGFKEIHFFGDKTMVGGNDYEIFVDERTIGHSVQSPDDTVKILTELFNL
Method: Die Messung kann auch in für HTS- oder UHTS-Assays gängigeren Formaten erfolgen, z.B. in Mikrotiterplatten, in denen z.B. ein Gesamtvolumen von 5 bis 50 µl pro Ansatz bzw. pro Well vorgelegt wird und die einzelnen Komponenten in einer der vorstehend angegebenen Endkonzentrationen vorliegen (vgl. Beispiel 2). Dabei wird die zu testende, potentiell die Aktivität des Enzyms inhibierende oder aktivierende Verbindung (Kandidatenmolekül) z.B. in einer geeigneten Konzentration im oben angegebenen Testpuffer enthaltend D-Mannose-1-phosphat vorgelegt. Dann wird das erfindungsgemäße Polypeptid in oben genanntem Testpuffer, enthaltend NADP^+, Glucose und die für den gekoppelten Assay notwendigen Hilfsenzyme Phosphoglucose Isomerase und Glucose-6-phosphat Dehydrogenase zugegeben und die Reaktion damit gestartet. Der Ansatz wird dann z.B. bis zu 2 oder 3 Stunden bei einer geeigneten Temperatur inkubiert und die Fluoreszenzzunahme bei einer Anregungswellenlänge von 360 nm und einer Emissionswellenlänge von 460 nm gemessen.
Eine weitere Messung erfolgt in einem entsprechenden Ansatz, jedoch ohne Zugabe eines Kandidatenmoleküls und ohne Zugabe eines erfindungsgemäßen Polypeptids (Negativkontrolle). Eine weitere Messung erfolgt wiederum bei Abwesenheit eines Kandidatenmoleküls, jedoch bei Anwesenheit des erfindungsgemäßen Polypeptids (Positivkontrolle). […]

## C[n+]1ccc(/C=C/c2ccc(N(c3ccc(/C=C/c4cc[n+](C)cc4)cc3)c3ccc(N(c4ccc(/C=C/c5cc[n+](C)cc5)cc4)c4ccc(/C=C/c5cc[n+](C)cc5)cc4)cc3)cc2)cc1 [Beispiel 2]
Phytophtora infectans; Phytophtora infectans, 50 % inhibition of fungal growth vs. untreated control
  ED50: 500 ppm
Phytophtora infectans; Phytophtora infectans, Wirkungsgrad: 0 % = like control, 100 % = no infestation
  WG: 33%
Phytophtora infectans; at the application rate given in Tabelle II
  fungizide Wirkung: deutlich fungizide Wirkung
Phosphomannomutase
  pI50: 4,9
